Source: patent publication US4891369A, “2β-Substituted-methylpenicillanic acid derivatives, and salts and esters thereof” (Taiho Pharmaceutical Company, Limited, priority 1986, dated 1990)
≈ marks a conversion by molar mass, not a printed value.

Tests used:
Test in all cases: MIC assay (Japan Society of Chemotherapy), antibacterial activity
Format in all cases: cell-based
Citrobacter 2046E = conditions: piperacillin used singly, 10^6 CFU/ml, 37° C., 20 hours, read-out: MIC piperacillin alone
Procedure: (§1) The minimal inhibitory concentration (MIC) of piperacillin in the presence of 5 μg/ml of the compounds of the present invention against various bacteria were determined by the MIC assay method of Japan Society of Chemotherapy (Chemotherapy 29(1), pp. 76-79, 1981).
(§2) The MIC value of the various compounds according to the invention and piperacillin, as used singly, were also determined. Each test strain was grown on Mueller Hinton Medium (Difco) and used for inoculation after dilution to concentration of 10^6 CFU/ml. The assay media (Mueller Hintoon Medium) containing piperacillin and the compound of the invention in a series of concentrations were inoculated with the test strain and incubated at 37° C. for 20 hours.
(§3) The minimum concentration at which no more than 5 colonies were observed was determined. […] All the test strains used in the above assay were β-lactamase producers.

Citrobacter 962L = conditions: piperacillin used singly, 10^6 CFU/ml, 37° C., 20 hours, read-out: MIC piperacillin alone
Procedure: as §1, §2, §3

E. coli 1573E = conditions: Escherichia coli, piperacillin used singly, 10^6 CFU/ml, 37° C., 20 hours, read-out: MIC piperacillin alone
Procedure: as §1, §2, §3

E. coli OXA3 = conditions: Escherichia coli, OXA3, 20 h, read-out: MIC piperacillin alone
Procedure: as §1, §2, §3

E. coli SHV1 = conditions: Escherichia coli, SHV1, 20 h, read-out: MIC piperacillin alone
Procedure: as §1, §2, §3

E. coli TEM1 = conditions: Escherichia coli, TEM1, 20 h, read-out: MIC piperacillin alone
Procedure: as §1, §2, §3

K. pneumoniae 101L = conditions: Klebsiella pneumoniae, piperacillin used singly, 10^6 CFU/ml, 37° C., 20 hours, read-out: MIC piperacillin alone
Procedure: as §1, §2, §3

P. aeruginosa PSE3 = conditions: Pseudomonas aeruginosa, piperacillin used singly, 10^6 CFU/ml, 37° C., 20 hours, read-out: MIC piperacillin alone
Procedure: as §1, §2, §3

P. aeruginosa PSE4 = conditions: Pseudomonas aeruginosa, piperacillin used singly, 10^6 CFU/ml, 37° C., 20 hours, read-out: MIC piperacillin alone
Procedure: as §1, §2, §3

P. mirabillis 60 = conditions: piperacillin used singly; 10^6 CFU/ml; 37° C., 20 hours; read-out: MIC piperacillin alone
Procedure: as §1, §2, §3

S. aureus 54K = conditions: Staphylococcus aureus, 20 h, read-out: MIC piperacillin alone
Procedure: as §1, §2, §3

Serratia 200L = conditions: piperacillin used singly, 10^6 CFU/ml, 37° C., 20 hours, read-out: MIC piperacillin alone
Procedure: as §1, §2, §3

`CCN1CCN(C(=O)N[C@@H](C(=O)N[C@@H]2C(=O)N3[C@@H]2SC(C)(C)[C@@H]3C(=O)O)c2ccccc2)C(=O)C1=O` [piperacillin] was tested, and the MIC (Citrobacter 2046E) was 25 µg/mL (≈ 48.3 µM), the MIC (Citrobacter 962L) was 100 µg/mL (≈ 193 µM) and the MIC (E. coli 1573E) was 6.25 µg/mL (≈ 12.1 µM). The MIC (E. coli OXA3) was 3.13 µg/mL (≈ 6.05 µM), the MIC (E. coli SHV1) was 25 µg/mL (≈ 48.3 µM) and the MIC (E. coli TEM1) was 100 µg/mL (≈ 193 µM). For the same compound, the MIC (K. pneumoniae 101L) was 100 µg/mL (≈ 193 µM), the MIC (P. aeruginosa PSE3) was 50 µg/mL (≈ 96.6 µM) and the MIC (P. aeruginosa PSE4) was 200 µg/mL (≈ 386 µM). For the same compound, the MIC (P. mirabillis 60) was 1.56 µg/mL (≈ 3.01 µM), the MIC (S. aureus 54K) was 3.13 µg/mL (≈ 6.05 µM) and the MIC (Serratia 200L) was 25 µg/mL (≈ 48.3 µM).
